# Assay results from patent publication US6914045B2, “Glycopeptide antibiotics” (Wyeth Holdings Corporation, priority 2001, dated 2005).
# Legend:
# Experiment in all cases: in vitro antibacterial evaluation, MIC by broth dilution
# Type in all cases: cell-based
# Enterococcus sp. = conditions: broth dilution, 18 hours at 35° C.; for MIC Enterococcus faecalis (ATCC 29212): strain ATCC 29212; for MIC Enterococcus faecalis (GC 2242): strain GC 2242; for MIC Enterococcus faecium (GC 2243): strain GC 2243; for MIC Enterococcus faecalis (GC 2691): strain GC 2691; for MIC Enterococcus faecalis (GC 3059): strain GC 3059; for MIC Enterococcus faecalis (GC 4552): strain GC 4552; for MIC Enterococcus faecalis (GC 4553): strain GC 4553; for MIC Enterococcus faecalis (GC 4554): strain GC 4554; for MIC Enterococcus faecium (GC 4556): strain GC 4556; for MIC Enterococcus faecium (GC 4557): strain GC 4557; for MIC Enterococcus avium (GC 4558): strain GC 4558; for MIC Enterococcus faecalis (GC 6189): strain GC 6189
# Method in brief: (§1)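 MIC, the lowest antibiotic concentration preventing growth, was read across 64-0.06 μg/mL with 5×10^5 CFU/mL inoculum. Method followed NCCLS M7-A2 broth dilution using Mueller-Hinton II; Gram-positive strains covered recent methicillin-, penicillin- and/or vancomycin-resistant clinical isolates.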
# Streptococcus sp. = conditions: broth dilution, 18 hours at 35° C.; for MIC Streptococcus pneumoniae (ATCC 6301): strain ATCC 6301; for MIC Streptococcus pneumoniae (GC 1894): strain GC 1894; for MIC Streptococcus pyogenes (GC 4563): strain GC 4563; for MIC Streptococcus agalactiae (GC 4564): strain GC 4564; for MIC Streptococcus pneumoniae (GC 4565): strain GC 4565
# Method in brief: as §1
# Escherichia coli = system: Escherichia coli
# Method in brief: as §1
# Staphylococcus sp. = conditions: broth dilution, 18 hours at 35° C.; for MIC Staphylococcus aureus (GC 1131): strain GC 1131
# Method in brief: as §1
smiles,measurement,setting,value
CC(c1ccccc1)C1NC(=O)CNC(=O)C(CO)NC(=O)C(C(O)C2CNC(=N)N2C2OC(CO)C(O)C(O)C2O)NC(=O)C(C(O)C2CNC(=N)N2)NC(=O)C(Cc2ccc(OC3OC(CO)C(OC4OC5COC(c6ccc(C=Cc7ccccc7)cc6)OC5C(O)C4O)C(O)C3O)cc2)NC1=O (centres unmarked) [Example 172],MIC Enterococcus faecalis (ATCC 29212),Enterococcus sp.; inoculum 5×10^5 CFU/mL,8 µg/mL
same,MIC Enterococcus faecalis (GC 2242),Enterococcus sp.; inoculum 5×10^5 CFU/mL,4 µg/mL
same,MIC Enterococcus faecium (GC 2243),Enterococcus sp.; inoculum 5×10^5 CFU/mL,8 µg/mL
same,MIC Enterococcus faecalis (GC 2691),Enterococcus sp.; inoculum 5×10^5 CFU/mL,4 µg/mL
same,MIC Enterococcus faecalis (GC 3059),Enterococcus sp.; inoculum 5×10^5 CFU/mL,8 µg/mL
same,MIC Enterococcus faecalis (GC 4552),Enterococcus sp.; inoculum 5×10^5 CFU/mL,8 µg/mL
same,MIC Enterococcus faecalis (GC 4553),Enterococcus sp.; inoculum 5×10^5 CFU/mL,4 µg/mL
same,MIC Enterococcus faecalis (GC 4554),Enterococcus sp.; inoculum 5×10^5 CFU/mL,4 µg/mL
same,MIC Enterococcus faecium (GC 4556),Enterococcus sp.; inoculum 5×10^5 CFU/mL,8 µg/mL
same,MIC Enterococcus faecium (GC 4557),Enterococcus sp.; inoculum 5×10^5 CFU/mL,8 µg/mL
same,MIC Enterococcus avium (GC 4558),Enterococcus sp.; inoculum 5×10^5 CFU/mL,4 µg/mL
same,MIC Enterococcus faecalis (GC 6189),Enterococcus sp.; inoculum 5×10^5 CFU/mL,2 µg/mL
same,MIC Enterococcus faecalis (ATCC 29212),Enterococcus sp.,8 µg/mL
same,MIC Enterococcus faecalis (GC 2242),Enterococcus sp.,4 µg/mL
same,MIC Enterococcus faecium (GC 2243),Enterococcus sp.,8 µg/mL
same,MIC Enterococcus faecalis (GC 2691),Enterococcus sp.,4 µg/mL
same,MIC Enterococcus faecalis (GC 3059),Enterococcus sp.,8 µg/mL
same,MIC Enterococcus faecalis (GC 4552),Enterococcus sp.,8 µg/mL
same,MIC Enterococcus faecalis (GC 4553),Enterococcus sp.,4 µg/mL
same,MIC Enterococcus faecalis (GC 4554),Enterococcus sp.,4 µg/mL
same,MIC Enterococcus faecium (GC 4556),Enterococcus sp.,8 µg/mL
same,MIC Enterococcus faecium (GC 4557),Enterococcus sp.,8 µg/mL
same,MIC Enterococcus avium (GC 4558),Enterococcus sp.,4 µg/mL
same,MIC Enterococcus faecalis (GC 6189),Enterococcus sp.,2 µg/mL
same,MIC Streptococcus pneumoniae (ATCC 6301),Streptococcus sp.; inoculum 5×10^5 CFU/mL,<0.06 µg/mL
same,MIC Streptococcus pneumoniae (GC 1894),Streptococcus sp.; inoculum 5×10^5 CFU/mL,<0.06 µg/mL
same,MIC Streptococcus pyogenes (GC 4563),Streptococcus sp.; inoculum 5×10^5 CFU/mL,0.12 µg/mL
same,MIC Streptococcus agalactiae (GC 4564),Streptococcus sp.; inoculum 5×10^5 CFU/mL,<0.06 µg/mL
same,MIC Streptococcus pneumoniae (GC 4565),Streptococcus sp.; inoculum 5×10^5 CFU/mL,<0.06 µg/mL
same,MIC Streptococcus pneumoniae (ATCC 6301),Streptococcus sp.,<0.06 µg/mL
same,MIC Streptococcus pneumoniae (GC 1894),Streptococcus sp.,<0.06 µg/mL
same,MIC Streptococcus pyogenes (GC 4563),Streptococcus sp.,0.12 µg/mL
same,MIC Streptococcus agalactiae (GC 4564),Streptococcus sp.,<0.06 µg/mL
same,MIC Streptococcus pneumoniae (GC 4565),Streptococcus sp.,<0.06 µg/mL
same,MIC Escherichia coli (ATCC 25922),"Escherichia coli; strain ATCC 25922, 18 hours at 35° C.",>64 µg/mL
same,MIC Escherichia coli (GC 4559),"Escherichia coli; strain GC 4559, 18 hours at 35° C.",>64 µg/mL
same,MIC Escherichia coli (GC 4560),"Escherichia coli; strain GC 4560, 18 hours at 35° C.",2 µg/mL
same,MIC Staphylococcus aureus (GC 1131),Staphylococcus sp.; inoculum 5×10^5 CFU/mL,8 µg/mL
same,MIC Staphylococcus aureus (ATCC 29213),Staphylococcus sp.; strain ATCC 29213,4 µg/mL
same,MIC Staphylococcus aureus (GC 1131),Staphylococcus sp.,8 µg/mL
same,MIC Staphylococcus aureus (GC 3051),Staphylococcus sp.; strain GC 3051,4 µg/mL
same,MIC Staphylococcus aureus (GC 3053),Staphylococcus sp.; strain GC 3053,4 µg/mL
same,MIC Staphylococcus aureus (GC 4541),Staphylococcus sp.; strain GC 4541,4 µg/mL
same,MIC Staphylococcus aureus (GC 4542),Staphylococcus sp.; strain GC 4542,2 µg/mL
same,MIC Staphylococcus aureus-SMITH (GC 4543),Staphylococcus sp.; strain GC 4543,8 µg/mL
same,MIC Staphylococcus aureus (GC 4544),Staphylococcus sp.; strain GC 4544,8 µg/mL
same,MIC Staphylococcus aureus (GC 4545),Staphylococcus sp.; strain GC 4545,4 µg/mL
same,MIC Staphylococcus haemolyticus (GC 4546),Staphylococcus sp.; strain GC 4546,8 µg/mL
same,MIC Coagulase Negative Staphylococcus (GC 4547),Staphylococcus sp.; strain GC 4547,8 µg/mL
same,MIC Coagulase Negative Staphylococcus (GC 4548),Staphylococcus sp.; strain GC 4548,2 µg/mL
same,MIC Coagulase Negative Staphylococcus (GC 4549),Staphylococcus sp.; strain GC 4549,2 µg/mL
same,MIC Coagulase Negative Staphylococcus (GC 4551),Staphylococcus sp.; strain GC 4551,4 µg/mL
same,MIC Coagulase Negative Staphylococcus (GC 6257),Staphylococcus sp.; strain GC 6257,2 µg/mL
